Drawing on paper PMC4954775 (Nature chemical biology, 2013), this text covers IC50 for 1 compound.

This experiment concerns the target T1, α-L-iduronidase (IDUA) (Homo sapiens, UniProt P35475).
T1 sequence (P35475 28-653): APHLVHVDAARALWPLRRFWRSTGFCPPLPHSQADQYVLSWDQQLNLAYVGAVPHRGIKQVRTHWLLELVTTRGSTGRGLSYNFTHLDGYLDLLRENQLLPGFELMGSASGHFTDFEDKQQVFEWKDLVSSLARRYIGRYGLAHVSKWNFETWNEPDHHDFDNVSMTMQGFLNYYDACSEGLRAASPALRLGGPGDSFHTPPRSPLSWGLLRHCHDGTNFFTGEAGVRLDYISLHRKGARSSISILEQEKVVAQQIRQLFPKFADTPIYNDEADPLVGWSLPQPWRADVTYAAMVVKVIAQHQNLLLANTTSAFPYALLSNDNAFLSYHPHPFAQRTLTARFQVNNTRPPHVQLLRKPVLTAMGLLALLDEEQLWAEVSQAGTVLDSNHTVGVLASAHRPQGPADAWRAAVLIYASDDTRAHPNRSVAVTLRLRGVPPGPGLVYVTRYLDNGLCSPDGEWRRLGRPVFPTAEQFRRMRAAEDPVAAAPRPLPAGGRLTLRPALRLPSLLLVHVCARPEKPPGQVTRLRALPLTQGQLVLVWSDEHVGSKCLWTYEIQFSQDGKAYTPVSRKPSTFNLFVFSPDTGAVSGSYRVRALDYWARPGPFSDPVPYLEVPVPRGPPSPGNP
In words: X-ray crystal structure. Format: biochemical.

pIC50: −log10 of the molar value.

Turning to `O=C(O)[C@@H]1NC[C@H](O)[C@@H](O)[C@@H]1O` [IdoADNJ, [2R, 3R, 4R, 5S]-2-carboxy-3,4,5-trihydroxy-piperidine], the pIC50 is approximately 2.52.
